Data taken from the supplement of paper PMC10307832.

Assays:
Assay in all cases: relative viability (nuclei count vs DMSO), 5 days (fraction); higher = more cells survive
[1] = compound: CN(C)CC1=CC(=CC=C1)N=C(C2=CC=CC=C2)C3=C(NC4=C3C=CC(=C4)C(=O)N(C)C)O + CCNC(=O)c1noc(-c2cc(C(C)C)c(O)cc2O)c1-c1ccc(CN2CCOCC2)cc1 [Luminespib] (partner 0.01 µM)
In short: (§1)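 The day after seeding in 1536-well plates, lung cancer cell lines were treated by pin tool with a single drug, or with a fixed anchor-drug dose together with five library-drug doses (not always all listed) in √10 steps. After 5 days, a combined fix-and-stain solution (final 0.05% Triton X-100, 1% formaldehyde, 1 ug/ml Hoechst) was added. Nuclei counted on 4× images gave relative viability as treated counts over vehicle counts, reported as the median of duplicate plates.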

[2] = compound: CN(C)CC1=CC(=CC=C1)N=C(C2=CC=CC=C2)C3=C(NC4=C3C=CC(=C4)C(=O)N(C)C)O + COc1cc2c(Oc3ccc(NC(=O)C4(C(=O)Nc5ccc(F)cc5)CC4)cc3F)ccnc2cc1OCCCN1CCOCC1 [Foretinib] (partner 0.25 µM)
In short: as §1

[3] = compound: CN(C)CC1=CC(=CC=C1)N=C(C2=CC=CC=C2)C3=C(NC4=C3C=CC(=C4)C(=O)N(C)C)O + Cc1cc(Nc2cc(N3CCN(C)CC3)nc(Sc3ccc(NC(=O)C4CC4)cc3)n2)n[nH]1 [Tozasertib] (partner 0.1 µM)
In short: as §1

[4] = compound: CN(C)CC1=CC(=CC=C1)N=C(C2=CC=CC=C2)C3=C(NC4=C3C=CC(=C4)C(=O)N(C)C)O + NC(=O)Nc1cc(-c2cccc(F)c2)sc1C(=O)N[C@H]1CCCNC1 [AZD7762] (partner 0.2 µM)
In short: as §1

Cell Line	relative viability ([1]; first compound 0.08 µM)	relative viability ([1]; first compound 0.253 µM)	relative viability ([1]; first compound 0.8 µM)	relative viability ([1]; first compound 2.53 µM)	relative viability ([1]; first compound 8 µM)	relative viability ([2]; first compound 0.08 µM)	relative viability ([2]; first compound 0.253 µM)	relative viability ([2]; first compound 0.8 µM)	relative viability ([2]; first compound 2.53 µM)	relative viability ([2]; first compound 8 µM)	relative viability ([3]; first compound 0.08 µM)	relative viability ([3]; first compound 0.253 µM)	relative viability ([3]; first compound 0.8 µM)	relative viability ([3]; first compound 2.53 µM)	relative viability ([3]; first compound 8 µM)	relative viability ([4]; first compound 0.08 µM)	relative viability ([4]; first compound 0.253 µM)	relative viability ([4]; first compound 0.8 µM)	relative viability ([4]; first compound 2.53 µM)	relative viability ([4]; first compound 8 µM)
NCI-H1437	1.12	1.14	1.2	1.06	1.2	1.3	1.22	1.35	1.27	1.33	0.431	0.443	0.37	0.387	0.4	1.19	1.16	1.16	1.03	1.12
NCI-H1651	0.892	0.782	0.894	0.639	0.87	0.865	0.777	0.87	0.735	0.816	0.621	0.755	0.71	0.595	0.692	0.483	0.474	0.414	0.435	0.397
NCI-H1666	1.02	1.02	1.08	1.01	1.02	1.03	1.01	1	1	1.11	0.642	0.59	0.675	0.603	0.868	0.908	0.857	0.847	0.764	0.852
NCI-H1734	0.206	0.168	0.164	0.25	0.174	0.765	0.839	0.819	0.771	0.807	0.259	0.262	0.227	0.268	0.247	0.644	0.532	0.506	0.56	0.526
NCI-H1755	0.472	0.413	0.422	0.351	0.454	0.941	0.903	0.989	0.874	0.918	0.531	0.479	0.642	0.594	0.615	0.374	0.383	0.481	0.452	0.411
NCI-H1793	0.19	0.249		0.165	0.113	0.745	0.66		0.734	0.621	0.305	0.385		0.368	0.347	0.527	0.386	0.407	0.346	0.436
NCI-H1915	0.745	0.745	0.811	0.836	0.667	1.03	1.06	1.13	1.12	1.05	0.474	0.409	0.432	0.407	0.414	0.704	0.729	0.756	0.699	0.578
NCI-H1944	0.758	0.766	0.785	0.657	0.585	0.888	0.923	0.877	0.86	0.785	0.25	0.251	0.222	0.262	0.214	0.56	0.576	0.419	0.525	0.434
